*1 amine or outer side, *2 acyl side, *3 side chain or, on linkers, in order; H or OH if unused. Where a SMILES comes first, the peptide text is derived from it. The star is where a group is joined. pNA = O=[N+]([O-])c1ccc(N*)cc1; Suc = O=C(CCC(=O)[*:2])[*:1]
How the values were obtained:
Experiment in all cases: Kinetic parameters by release of p-nitroaniline from suc-AAPFpNA (absorbance at 410 nm, Michaelis-Menten fit)
[1] = biological target: T1, Bacillus lentus subtilisin variant N74D/S101A/V102W (control variant of WO1995010591), SEQ ID NO: 3 (Lederbergia lenta, UniProt P29600, N74D/S101A/V102W); type: biochemical
T1 construct: made in house; host or cells: protease deficient Bacillus subtilis 168
T1 sequence (P29600 1-269 N74D/S101A/V102W): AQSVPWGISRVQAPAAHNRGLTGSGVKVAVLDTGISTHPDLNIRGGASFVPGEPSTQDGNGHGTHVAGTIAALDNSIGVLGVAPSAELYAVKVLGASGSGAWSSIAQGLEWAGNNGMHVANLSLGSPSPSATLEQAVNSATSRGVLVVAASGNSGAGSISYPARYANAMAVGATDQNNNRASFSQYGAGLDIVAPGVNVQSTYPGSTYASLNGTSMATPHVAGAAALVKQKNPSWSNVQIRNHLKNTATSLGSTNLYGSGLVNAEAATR
Protocol: (§1) Three selected mutants as well as the wild-type and one mutant of the patent application WO1995010591 A1 data set were cloned in a Bacillus vector behind a constitutive APRE promotor and expressed in a protease deficient Bacillus subtilis 168 strain. The transformed strains were grown for 24 hours at 37°C in shake flasks. The subtilisin variants were purified by Ion exchange chromatography followed by […] with a 0-200 mM salt gradient. The activity of the protease variants was determined by the release of the chromophore para-nitroanilide from succinyl-alanine-alanine-proline-phenylalanine-para-nitroanilide (suc-AAPFpNA). The release of the pNA causes an increase in the absorbance at 410 nm, the temporal progression of which is used as a measure of the activity of the enzymes.
(§2) The kinetic parameters kcat and Km of the variants were measured using basically the method described in Bonneau, P. R., Graycar, T. P., Estell, D. A., & Jones, J. B. (1991). Alteration of the specificity of subtilisin BPN'by site-directed mutagenesis in its S1 and S1'binding sites. Journal of the American Chemical Society, 113(3), 1026-1030. A small aliquot of purified subtilisin variant was added to a 96 microtiterplate well containing succinyl-L-Ala-L-Ala-L-Pro-L-Phe-p-nitroanilide (SEQ ID NO: 1) dissolved in 0.1M Tris-HCL, pH 8.6. The reaction progress was measured spectrophotometrically at 25°C by monitoring the absorbance of p-nitroaniline at 410nm. The corresponding experimental values were fit to the Michaelis-Menten equation by a regression algorithm. The kcat/KM ratio was obtained by dividing the resulting values. […] Table 2: kinetic parameters kcat and Km of the variants at pH 8.6
(§3) The kinetic parameters kcat and Km of the variants were also measured using basically the method described in Bonneau, P. R., Graycar, T. P., Estell, D. A., & Jones, J. B. (1991). Alteration of the specificity of subtilisin BPN'by site-directed mutagenesis in its S1 and S1'binding sites. Journal of the American Chemical Society, 113(3), 1026-1030. A small aliquot of purified subtilisin variant was added to a microtiterplate containing suc-AAPFpNA (SEQ ID NO:1) dissolved in 0.1M glycine pH10. The reaction progress was measured spectrophotometrically by monitoring the absorbance of p-nitroaniline at 410nm. The corresponding experimental values were fit to the Michaelis-Menten equation by a regression algorithm. The kcat/Km ratio was obtained by dividing the resulting values. […] Kcat kcat/km are indicated as % compared to the wild-type (100%). Table 3: kinetic parameters kcat and Km of the variants at pH 10

[2] = biological target: T2, Bacillus lentus subtilisin variant N74D/S97D/S126G/P204I/T254P/S259N, SEQ ID NO: 6 (Lederbergia lenta, UniProt P29600, N74D/P204I/S126G/S259N/S97D/T254P); type: biochemical
T2 construct: made in house; host or cells: protease deficient Bacillus subtilis 168
T2 sequence (P29600 1-269 N74D/S97D/S126G/P204I/T254P/S259N): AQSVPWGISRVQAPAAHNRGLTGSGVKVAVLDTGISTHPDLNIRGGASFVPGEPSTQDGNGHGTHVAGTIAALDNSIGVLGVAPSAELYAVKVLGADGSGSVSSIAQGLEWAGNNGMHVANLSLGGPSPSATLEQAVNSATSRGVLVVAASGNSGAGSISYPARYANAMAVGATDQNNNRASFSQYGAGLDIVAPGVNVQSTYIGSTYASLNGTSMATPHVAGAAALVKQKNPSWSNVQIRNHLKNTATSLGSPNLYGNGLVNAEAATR
Protocol: as §1, §2, §3

[3] = biological target: T3, Bacillus lentus subtilisin variant N74D/S99G/V102W/S126G/D191E/N198G/N212S/T254P, SEQ ID NO: 4 (Lederbergia lenta, UniProt P29600, D191E/N198G/N212S/N74D/S126G/S99G/T254P/V102W); type: biochemical
T3 construct: made in house; host or cells: protease deficient Bacillus subtilis 168
T3 sequence (P29600 1-269 N74D/S99G/V102W/S126G/D191E/N198G/N212S/T254P): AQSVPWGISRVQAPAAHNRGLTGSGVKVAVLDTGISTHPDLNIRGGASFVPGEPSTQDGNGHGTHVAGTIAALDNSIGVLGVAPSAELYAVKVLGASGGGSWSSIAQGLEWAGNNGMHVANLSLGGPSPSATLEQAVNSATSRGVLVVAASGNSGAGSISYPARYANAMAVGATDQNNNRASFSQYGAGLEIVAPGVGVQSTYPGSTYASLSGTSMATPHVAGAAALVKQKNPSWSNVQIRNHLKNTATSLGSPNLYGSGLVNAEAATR
Protocol: as §1, §2, §3

[4] = biological target: T4, Bacillus lentus subtilisin variant N74D/S99G/V102W/S126G/N198A/N212S/T254P, SEQ ID NO: 5 (Lederbergia lenta, UniProt P29600, N198A/N212S/N74D/S126G/S99G/T254P/V102W); type: biochemical
T4 construct: made in house; host or cells: protease deficient Bacillus subtilis 168
T4 sequence (P29600 1-269 N74D/S99G/V102W/S126G/N198A/N212S/T254P): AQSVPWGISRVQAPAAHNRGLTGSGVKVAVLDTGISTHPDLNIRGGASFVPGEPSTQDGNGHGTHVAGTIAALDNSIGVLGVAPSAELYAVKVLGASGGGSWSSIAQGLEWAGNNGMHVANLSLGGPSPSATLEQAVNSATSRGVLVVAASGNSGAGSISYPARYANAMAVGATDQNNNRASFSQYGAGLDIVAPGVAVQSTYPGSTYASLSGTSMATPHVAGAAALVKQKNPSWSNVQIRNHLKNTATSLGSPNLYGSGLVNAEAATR
Protocol: as §1, §2, §3

[5] = biological target: T5, wild-type subtilisin of Bacillus lentus (GG36), WT, SEQ ID NO: 2 (Lederbergia lenta, UniProt P29600); type: biochemical
T5 construct: made in house; host or cells: protease deficient Bacillus subtilis 168
T5 sequence (P29600 1-269): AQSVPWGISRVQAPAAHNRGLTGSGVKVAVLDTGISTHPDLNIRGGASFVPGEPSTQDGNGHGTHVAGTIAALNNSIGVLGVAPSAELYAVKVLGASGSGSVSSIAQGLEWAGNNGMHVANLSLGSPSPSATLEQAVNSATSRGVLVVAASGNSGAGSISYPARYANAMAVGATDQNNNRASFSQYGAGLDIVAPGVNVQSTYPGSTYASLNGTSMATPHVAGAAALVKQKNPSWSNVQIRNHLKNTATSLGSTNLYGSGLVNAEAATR
Protocol: as §1, §2, §3

[6] = substrate: C[C@H](NC(=O)CCC(=O)O)C(=O)N[C@@H](C)C(=O)N1CCC[C@H]1C(=O)N[C@@H](Cc1ccccc1)C(=O)Nc1ccc([N+](=O)[O-])cc1; type: biochemical, Bacillus lentus
Protocol: as §1, §2, §3

[7] = other: 0.1M Tris-HCL, pH 8.6, 25°C, pH 8.6, 25.0 °C
[8] = other: 0.1M glycine pH10, pH 10.0

C[C@H](NC(=O)CCC(=O)O)C(=O)N[C@@H](C)C(=O)N1CCC[C@H]1C(=O)N[C@@H](Cc1ccccc1)C(=O)Nc1ccc([N+](=O)[O-])cc1 [succinyl-L-Ala-L-Ala-L-Pro-L-Phe-p-nitroanilide] (Suc-AAPF-pNA)
kcat pH 8.6 ([1]; 0.1M Tris-HCL, pH 8.6, 25°C): 638 % of wild-type | kcat/Km pH 8.6 ([1]; 0.1M Tris-HCL, pH 8.6, 25°C): 1392 % of wild-type | kcat pH 10 ([1]; 0.1M glycine pH10): 554 %half-life of wild-type | kcat/Km pH10 ([1]; 0.1M glycine pH10): 2263 % wild-type | kcat pH 8.6 ([2]; 0.1M Tris-HCL, pH 8.6, 25°C): 55 % of wild-type | kcat/Km pH 8.6 ([2]; 0.1M Tris-HCL, pH 8.6, 25°C): 51 % of wild-type | kcat pH 10 ([2]; 0.1M glycine pH10): 37 %half-life of wild-type | kcat/Km pH10 ([2]; 0.1M glycine pH10): 97 % wild-type | kcat pH 8.6 ([3]; 0.1M Tris-HCL, pH 8.6, 25°C): 579 % of wild-type | kcat/Km pH 8.6 ([3]; 0.1M Tris-HCL, pH 8.6, 25°C): 3326 % of wild-type | kcat pH 10 ([3]; 0.1M glycine pH10): 719 %half-life of wild-type | kcat/Km pH10 ([3]; 0.1M glycine pH10): 5100 % wild-type | kcat pH 8.6 ([4]; 0.1M Tris-HCL, pH 8.6, 25°C): 503 % of wild-type | kcat/Km pH 8.6 ([4]; 0.1M Tris-HCL, pH 8.6, 25°C): 6362 % of wild-type | kcat pH 10 ([4]; 0.1M glycine pH10): 723 %half-life of wild-type | kcat/Km pH10 ([4]; 0.1M glycine pH10): 10827 % wild-type | kcat pH 8.6 ([5]; 0.1M Tris-HCL, pH 8.6, 25°C): 100 % of wild-type | kcat/Km pH 8.6 ([5]; 0.1M Tris-HCL, pH 8.6, 25°C): 100 % of wild-type | kcat pH 10 ([5]; 0.1M glycine pH10): 100 %half-life of wild-type | kcat/Km pH10 ([5]; 0.1M glycine pH10): 100 % wild-type

B1: wild-type subtilisin of Bacillus lentus (GG36), WT, SEQ ID NO: 2 (Lederbergia lenta) (protein)
chain: AQSVPWGISRVQAPAAHNRGLTGSGVKVAVLDTGISTHPDLNIRGGASFVPGEPSTQDGNGHGTHVAGTIAALNNSIGVLGVAPSAELYAVKVLGASGSGSVSSIAQGLEWAGNNGMHVANLSLGSPSPSATLEQAVNSATSRGVLVVAASGNSGAGSISYPARYANAMAVGATDQNNNRASFSQYGAGLDIVAPGVNVQSTYPGSTYASLNGTSMATPHVAGAAALVKQKNPSWSNVQIRNHLKNTATSLGSTNLYGSGLVNAEAATR
notes: made in house; host or cells: protease deficient Bacillus subtilis 168
Km [6, 7]: 630 µM | Km [6, 8]: 1340 µM

B2: Bacillus lentus subtilisin variant N74D/S99G/V102W/S126G/D191E/N198G/N212S/T254P, SEQ ID NO: 4 (Lederbergia lenta; … (protein)
chain: AQSVPWGISRVQAPAAHNRGLTGSGVKVAVLDTGISTHPDLNIRGGASFVPGEPSTQDGNGHGTHVAGTIAALDNSIGVLGVAPSAELYAVKVLGASGGGSWSSIAQGLEWAGNNGMHVANLSLGGPSPSATLEQAVNSATSRGVLVVAASGNSGAGSISYPARYANAMAVGATDQNNNRASFSQYGAGLEIVAPGVGVQSTYPGSTYASLSGTSMATPHVAGAAALVKQKNPSWSNVQIRNHLKNTATSLGSPNLYGSGLVNAEAATR
notes: as for B1
Km [6, 7]: 110 µM | Km [6, 8]: 190 µM

B3: Bacillus lentus subtilisin variant N74D/S101A/V102W (control variant of WO1995010591), SEQ ID NO: 3 (Lederbergia lenta; N74D/S101A/V102W) (protein)
chain: AQSVPWGISRVQAPAAHNRGLTGSGVKVAVLDTGISTHPDLNIRGGASFVPGEPSTQDGNGHGTHVAGTIAALDNSIGVLGVAPSAELYAVKVLGASGSGAWSSIAQGLEWAGNNGMHVANLSLGSPSPSATLEQAVNSATSRGVLVVAASGNSGAGSISYPARYANAMAVGATDQNNNRASFSQYGAGLDIVAPGVNVQSTYPGSTYASLNGTSMATPHVAGAAALVKQKNPSWSNVQIRNHLKNTATSLGSTNLYGSGLVNAEAATR
notes: as for B1
Km [6, 7]: 290 µM | Km [6, 8]: 330 µM

B4: Bacillus lentus subtilisin variant N74D/S99G/V102W/S126G/N198A/N212S/T254P, SEQ ID NO: 5 (Lederbergia lenta; N198A/N212S/N74D/S126G/S99G/T254P/V102W) (protein)
chain: AQSVPWGISRVQAPAAHNRGLTGSGVKVAVLDTGISTHPDLNIRGGASFVPGEPSTQDGNGHGTHVAGTIAALDNSIGVLGVAPSAELYAVKVLGASGGGSWSSIAQGLEWAGNNGMHVANLSLGGPSPSATLEQAVNSATSRGVLVVAASGNSGAGSISYPARYANAMAVGATDQNNNRASFSQYGAGLDIVAPGVAVQSTYPGSTYASLSGTSMATPHVAGAAALVKQKNPSWSNVQIRNHLKNTATSLGSPNLYGSGLVNAEAATR
notes: as for B1
Km [6, 7]: 50 µM | Km [6, 8]: 90 µM

B5: Bacillus lentus subtilisin variant N74D/S97D/S126G/P204I/T254P/S259N, SEQ ID NO: 6 (Lederbergia lenta; N74D/P204I/S126G/S259N/S97D/T254P) (protein)
chain: AQSVPWGISRVQAPAAHNRGLTGSGVKVAVLDTGISTHPDLNIRGGASFVPGEPSTQDGNGHGTHVAGTIAALDNSIGVLGVAPSAELYAVKVLGADGSGSVSSIAQGLEWAGNNGMHVANLSLGGPSPSATLEQAVNSATSRGVLVVAASGNSGAGSISYPARYANAMAVGATDQNNNRASFSQYGAGLDIVAPGVNVQSTYIGSTYASLNGTSMATPHVAGAAALVKQKNPSWSNVQIRNHLKNTATSLGSPNLYGNGLVNAEAATR
notes: as for B1
Km [6, 7]: 660 µM | Km [6, 8]: 520 µM

From patent EP4446411A1, “VARIANT SUBTILISIN PROTEASES” (PEACCEL, priority 2023, dated 2024)
